Measurements as given in paper PMC3297001, “Four Eremophilane Sesquiterpenes from the Mangrove Endophytic Fungus Xylaria sp. BL321” (2012).

Target: α-glucosidase
Test: enzyme assay with PNPG substrate, absorbance at […] nm; activation ([…]) at […], inhibition at higher concentration
Format: biochemical

IC50: 6.54 µM
Structure (SMILES): C=C(C=O)[C@@H]1C[C@@]2(C)C(=CC1=O)[C@H](OC(=O)/C=C/C=C/C(C)CC(C)CC)CC[C@@H]2C(=O)O (stereo partly shown) [compound 4, 07H239-A]
